± gives the standard deviation of the averaged measurements.
Assays:
Assay in all cases: level (log10 ratio to DMSO vehicle control); higher = higher biomarker level / cell amount than vehicle control
Details in all cases: in DMSO
Hexafluoroamylene glycol = compound: OCC(F)(F)C(F)(F)C(F)(F)CO [Hexafluoroamylene glycol]
Experimental: (§1)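 BioMAP Diversity Plus panel of 12 human primary cell co-culture systems (3C, 4H, LPS, SAg, BT, BF4T, BE3C, CASM3C, HDF3CGF, KF3CT, MyoF, Mphg). Compounds were added 1 h before stimulation and left for 24 h (MyoF 48 h; BT 72 h for soluble read-outs or 6 d for IgG). Biomarkers were read by ELISA, cytotoxicity by SRB, PBMC viability and proliferation by Alamar Blue. Each well value was divided by the mean of 8 DMSO control wells on the same plate and log10 transformed; duplicate blinded samples were tested at 4 concentrations.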

[1] = compound: COC(=O)C(F)(F)C(F)(F)OC(F)(C(F)(F)F)C(F)(F)OC(F)=C(F)F [Methyl perfluoro(3-(1-ethenyloxypropan-2-yloxy)propanoate)]
Experimental: as §1

[2] = compound: O=C(O)C=CC(F)(C(F)(F)F)C(F)(F)F [3-(Perfluoroisopropyl)-2-propenoic acid]
Experimental: as §1

[3] = compound: O=S(=O)(O)CCC(F)(F)C(F)(F)C(F)(F)C(F)(F)C(F)(F)C(F)(F)F [6:2 Fluorotelomer sulfonic acid]
Experimental: as §1

[4] = compound: NC(=O)C(F)(F)C(F)(F)C(F)(F)C(F)F
Experimental: as §1

Heptafluorobutyl iodide = compound: FC(F)(F)C(F)(F)C(F)(F)CI [Heptafluorobutyl iodide]
Experimental: as §1

[5] = compound: FC(F)(F)C(F)(F)C(F)(F)C(F)(F)C(F)(F)C(F)(F)CC1CO1 [3-(Perfluorohexyl)-1,2-epoxypropane]
Experimental: as §1

Test System | level (log10) (Hexafluoroamylene glycol; 6700 nM) | level (log10) (Hexafluoroamylene glycol; 20000 nM) | level (log10) (Hexafluoroamylene glycol; 60000 nM) | level (log10) ([1]; 6700 nM) | level (log10) ([1]; 20000 nM) | level (log10) ([2]; 6700 nM) | level (log10) ([2]; 20000 nM) | level (log10) ([2]; 60000 nM) | level (log10) ([3]; 6700 nM) | level (log10) ([3]; 20000 nM) | level (log10) ([3]; 60000 nM) | level (log10) ([4]; 6700 nM) | level (log10) ([4]; 20000 nM) | level (log10) ([4]; 60000 nM) | level (log10) (Heptafluorobutyl iodide; 6700 nM) | level (log10) (Heptafluorobutyl iodide; 20000 nM) | level (log10) (Heptafluorobutyl iodide; 60000 nM) | level (log10) ([5]; 6700 nM) | level (log10) ([5]; 20000 nM) | level (log10) ([5]; 60000 nM)
LPS:M-CSF | -0.0075 ± 0.016 | 0.0115 ± 0.0078 | -0.003 ± 0.035 | -0.0065 ± 0.013 | -0.0105 ± 0.0064 | -0.011 ± 0.041 | -0.0065 ± 0.0092 | 0.0035 ± 0.0035 | -0.0045 ± 0.015 | 0.004 ± 0.03 | 0.0485 ± 0.039 | -0.013 ± 0.028 | -0.011 ± 0.0014 | 0.0065 ± 0.023 | -0.0225 ± 0.0064 | 0.007 ± 0.023 | 0.0065 ± 0.011 | -0.004 ± 0.0099 | -0.013 ± 0.0028 | 0.0055 ± 0.0035
LPS:sPGE2 | -0.0265 ± 0.022 | -0.0255 ± 0.071 | -0.0325 ± 0.054 | -0.015 ± 0.021 | 0.0015 ± 0.029 | 0.01 ± 0.065 | 0.046 ± 0.023 | 0.0575 ± 0.025 | -0.008 ± 0.023 | -0.0215 ± 0.047 | -0.0345 ± 0.029 | -0.0045 ± 0.028 | -0.0005 ± 0.005 | 0.0315 ± 0.036 | -0.0175 ± 0.026 | 0.0095 ± 0.064 | 0.0105 ± 0.064 | 0.022 ± 0.0057 | -0.0655 ± 0.0035 | -0.047 ± 0.0099
LPS:sTNF-alpha | 0.0025 ± 0.012 | -0.009 ± 0.014 | -0.001 ± 0.0099 | 0.0115 ± 0.046 | 0.0395 ± 0.019 | 0.003 ± 0.1 | 0.0345 ± 0.057 | 0.0395 ± 0.03 | -0.002 ± 0.0042 | 0 ± 0.0057 | 0.0015 ± 0.0092 | -0.0095 ± 0.0035 | -0.0095 ± 0.022 | -0.003 ± 0.031 | -0.009 ± 0.017 | -0.0095 ± 0.016 | -0.009 ± 0.023 | 0.063 ± 0.034 | 0.09 ± 0.0028 | 0.103 ± 0.011
SAg:CCL2/MCP-1 | -0.012 | -0.002 ± 0.011 | -0.016 ± 0.0099 | -0.01 ± 0.0085 | 0.011 ± 0.058 | -0.003 ± 0.0042 | -0.0005 ± 0.016 | -0.0055 ± 0.0064 | -0.019 ± 0.0085 | -0.015 ± 0.0042 | 0.0035 ± 0.019 | -0.0145 ± 0.026 | -0.024 ± 0.013 | 0.0115 ± 0.03 | -0.0095 ± 0.0078 | -0.0025 ± 0.00071 | 0.01 ± 0.011 | -0.0075 ± 0.012 | 0.0005 ± 0.0021 | 0.003 ± 0.016
SAg:CD38 | -0.02 ± 0.034 | -0.03 ± 0.025 | -0.0275 ± 0.046 | -0.0175 ± 0.13 | 0.038 ± 0.082 | -0.0125 ± 0.026 | 0.001 ± 0.0071 | -0.019 ± 0.0085 | -0.0315 ± 0.012 | -0.022 ± 0.04 | -0.0505 ± 0.032 | -0.034 ± 0.014 | -0.027 ± 0.02 | -0.0295 ± 0.0064 | -0.0205 ± 0.021 | -0.027 ± 0.016 | -0.017 ± 0.031 | 0.001 ± 0.014 | 0.0035 ± 0.00071 | -0.015 ± 0.0042
SAg:CD40 | -0.0285 ± 0.03 | -0.011 ± 0.044 | -0.0215 ± 0.04 | -0.0045 ± 0.021 | -0.0045 ± 0.081 | -0.006 ± 0.058 | -0.005 ± 0.04 | -0.038 ± 0.014 | -0.0275 ± 0.046 | -0.0285 ± 0.064 | -0.053 ± 0.035 | -0.023 ± 0.0028 | -0.0155 ± 0.019 | -0.02 ± 0.028 | -0.027 ± 0.011 | -0.0445 ± 0.016 | -0.024 ± 0.016 | -0.008 ± 0.013 | -0.0135 ± 0.012 | -0.018 ± 0.013
SAg:CD62E/E-Selectin | -0.0415 ± 0.039 | -0.0015 ± 0.0035 | -0.0135 ± 0.00071 | -0.028 ± 0.0071 | -0.0615 ± 0.032 | 0 ± 0.011 | 0.0045 ± 0.013 | -0.006 ± 0.0042 | -0.008 ± 0.0057 | -0.007 ± 0.013 | 0.038 ± 0.013 | 0.005 ± 0.04 | -0.0135 ± 0.039 | 0.0155 ± 0.036 | -0.0225 ± 0.026 | 0.0065 ± 0.00071 | -0.025 ± 0.014 | -0.008 ± 0.018 | 0.0005 ± 0.0035 | -0.012 ± 0.027
SAg:CXCL8/IL-8 | -0.0285 ± 0.073 | -0.0175 ± 0.0092 | 0.052 ± 0.035 | -0.0155 ± 0.026 | 0.055 ± 0.15 | -0.0185 ± 0.005 | -0.0015 ± 0.033 | 0.009 ± 0.028 | -0.012 ± 0.025 | 0.0325 ± 0.039 | 0.064 ± 0.03 | -0.0055 ± 0.037 | 0.0075 ± 0.015 | 0.0055 ± 0.018 | -0.053 ± 0.04 | -0.0345 ± 0.019 | -0.02 ± 0.072 | -0.0135 ± 0.021 | -0.029 ± 0.013 | 0.0075 ± 0.026
SAg:CXCL9/MIG | -0.0015 ± 0.011 | -0.016 ± 0.016 | -0.003 ± 0.0071 | -0.0145 ± 0.021 | 0.0055 ± 0.0035 | -0.0105 ± 0.025 | 0.013 | -0.006 ± 0.0085 | -0.002 ± 0.018 | -0.0035 ± 0.015 | -0.0045 ± 0.012 | -0.0015 ± 0.0021 | -0.0055 ± 0.005 | 0.0105 ± 0.0021 | -0.007 ± 0.0028 | -0.0025 ± 0.0021 | -0.0085 ± 0.0092 | 0.008 ± 0.0085 | 0.006 ± 0.0057 | 0.002 ± 0.0042
SAg:PBMC Cytotoxicity | 0.0135 ± 0.00071 | 0.008 ± 0.014 | 0.005 ± 0.03 | -0.0115 ± 0.025 | 0.028 ± 0.044 | -0.0035 ± 0.0078 | 0.0015 ± 0.0035 | -0.005 ± 0.017 | 0.0105 ± 0.00071 | 0 ± 0.0071 | 0.0305 ± 0.029 | 0.018 ± 0.016 | -0.008 ± 0.011 | 0.0425 ± 0.067 | -0.015 ± 0.025 | 0.0035 ± 0.005 | 0.003 ± 0.0099 | 0.01 ± 0.037 | -0.0055 ± 0.011 | 0.025 ± 0.0071
SAg:Proliferation | -0.024 ± 0.041 | -0.0395 ± 0.013 | -0.039 ± 0.0042 | -0.003 ± 0.018 | 0.0525 ± 0.057 | 0.009 ± 0.016 | -0.008 ± 0.037 | 0.008 ± 0.04 | -0.019 ± 0.027 | -0.0255 ± 0.023 | -0.0225 ± 0.0035 | -0.0135 ± 0.018 | 0.0105 ± 0.0064 | 0.033 ± 0.018 | -0.056 ± 0.037 | 0.029 ± 0.028 | -0.072 ± 0.0042 | 0.013 ± 0.014 | -0.0105 ± 0.019 | 0.013 ± 0.051
SAg:SRB | -0.0015 ± 0.00071 | -0.004 ± 0.0028 | -0.0005 ± 0.019 | 0.0035 ± 0.015 | 0.006 ± 0.0057 | -0.001 ± 0.0042 | -0.007 ± 0.025 | -0.0065 ± 0.028 | -0.012 ± 0.0057 | -0.0045 ± 0.0021 | -0.0045 ± 0.021 | -0.0225 ± 0.0035 | -0.02 ± 0.0028 | -0.015 ± 0.021 | -0.007 ± 0.0099 | -0.001 ± 0.0042 | 0.002 ± 0.011 | -0.007 ± 0.0099 | -0.012 ± 0.0042 | 0.006 ± 0.016

From the supplement of paper PMC10331698
